Measured values: patent US8835632B2, “Methods to increase the photostability of dyes” (The University of North Carolina at Chapel Hill, priority 2007, dated 2014)

Assays:
Format in all cases: physicochemical
[1] = Absorption and fluorescence spectra, extinction coefficient, fluorescence quantum yield
Protocol: Absorption spectra were recorded on a Hewlett-Packard 8453 diode array UV-Vis spectrophotometer (Agilent Technologies, Inc., Santa Clara, Calif.), and fluorescence measurements were taken on a SPEX® Fluorolog 2 spectrofluorometer (HORIBA Jobin Yvon, Inc., Edison, N.J.). Melting points are not corrected. NMR spectra were obtained on a Varian Mercury 300 MHz (Varian, Inc., Palo Alto, Calif.) or on a Bruker 300 MHz DRX 300 spectrometer (Bruker Biospin Corp., Billerica, Mass.). Mass spectra were obtained on a Hewlett-Packard 1100 high-performance liquid chromatograph equipped with an 1100 mass selective detector (MS-ESI) (Agilent Technologies, Inc.).
With decreasing solvent polarity, the absorption maximum of dyes 1a-b, 2a-d shifted to longer wavelengths, and the intensity of the transition increased (Table 10, FIG. 11).
The SCRF/VSCRF predicted emission energies and the solute dipole moments before and after the vertical emission process are given in Table 16. The dipole moments of AI-BA(4) and AI-SO(4) are further decreased on the S1 surface after geometry relaxation (in MeOH solution), and then increased during the S1→S0 transition. This observation is consistent with the blue shifts of the emission bands of AI-BA(4) and AI-SO(4) with increasing solvent polarity from C6H6 to MeOH. By contrast, the dipole moment of I-SO further decreases after S1 state geometry relaxation, and then decreases during the vertical emission process. This observation also is in agreement with the red shift of the I-SO emission band with increasing solvent polarity from C6H6 to MeOH. Similarly to the absorption case, a negligible red shift (ΔEem=0.017 eV) was predicted for the emission band of I-TBA with increasing solvent polarity. A small red shift from C6H6 to DMF (with ΔEem=0.020 eV, or Δλmax=6 nm) is observed. The nearly equal emission energy observed in C6H6 and MeOH can again result in the explicit interactions between the solute and solvent molecules.

[2] = Photobleaching under constant illumination from a halogen tungsten lamp filtered through glass
Excerpt: The photostability of dyes can be important for applications in living cells. The mechanism of photobleaching for merocyanines of varying structure has been examined See Toutchkine et al., J. Am. Chem. Soc. 125:4132-4145 (2003). The photostability of the presently disclosed dyes was characterized by exposing them to constant illumination from a halogen tungsten lamp filtered through glass. This broad spectrum light source provided essentially equal intensity throughout the spectral range where the dyes absorb and where they would be irradiated in vivo (about 600 nm to about 650 nm).

[3] = Relative rate of reaction with chemically generated singlet oxygen in DMSO; details: 2.5 mM, 1O2 from 1,4-dimethylnaphtalene-1,4-endoperoxide
Protocol: The bleaching rates for the dyes differed by two orders of magnitude. The relative rate constants kr (rel) for product formation during reaction with singlet oxygen were measured by comparing the percent conversions for dyes dissolved in DMSO containing a fixed amount of ^1O2 (2.5 mM solutions; ^1O2 generated by decomposition of 1,4-dimethylnaphtalene-1,4-endoperoxide). The rates were generally higher for dyes with a polar ground state (1a, 2a, 2b, 2d) than for the dyes with their ground state at the “cyanine limit” (3, 4). […] Olefins without allylic hydrogens react with singlet oxygen to form dioxetanes. Dioxetanes are unstable and decompose, to form two carbonyl compounds.

[4] = MeOH, with respect to standard I-TBA in MeOH

## CC1(C)c2ccccc2-[n+]2ccc(/C=C/C3=C([O-])c4ccccc4S3(=O)=O)cc21 [AI-SO(2)]
[1]; Table 10, BuOH
  Observed absorption (ε): (120000)
  Observed absorption λmax: 554 nm
[1]; Table 10, C6H6
  Observed absorption (ε): (235000)
  Observed absorption λmax: 570 nm
[1]; Table 10, CH2Cl2
  Observed absorption (ε): (218000)
  Observed absorption λmax: 561 nm
[1]; Table 10, CH3CN
  Observed absorption (ε): (149000)
  Observed absorption λmax: 549 nm
[1]; Table 10, DMF
  Observed absorption (ε): (157000)
  Observed absorption λmax: 556 nm
[1]; Table 10, DMSO
  Observed absorption (ε): (126000)
  Observed absorption λmax: 555 nm
[1]; Table 10, EtOH
  Observed absorption (ε): (111000)
  Observed absorption λmax: 549 nm
[1]; Table 10, MeOH
  Observed absorption (ε): (92000)
  Observed absorption λmax: 542 nm
[1]; Table 10, OcOH
  Observed absorption (ε): (150000)
  Observed absorption λmax: 559 nm
[1]; Table 10, i-PrOH
  Observed absorption (ε): (132000)
  Observed absorption λmax: 553 nm
[1]; Table 15, BuOH
  Observed emission (Φ): 0.16
  Observed emission λmax: 567 nm
[1]; Table 15, C6H6
  Observed emission (Φ): 0.02
  Observed emission λmax: 577 nm
[1]; Table 15, CH2Cl2
  Observed emission (Φ): 0.06
  Observed emission λmax: 571 nm
[1]; Table 15, CH3CN
  Observed emission (Φ): 0.06
  Observed emission λmax: 561 nm
[1]; Table 15, DMF
  Observed emission (Φ): 0.16
  Observed emission λmax: 567 nm
[1]; Table 15, DMSO
  Observed emission (Φ): 0.24
  Observed emission λmax: 567 nm
[1]; Table 15, EtOH
  Observed emission (Φ): 0.09
  Observed emission λmax: 563 nm
[1]; Table 15, MeOH
  Observed emission (Φ): 0.05
  Observed emission λmax: 561 nm
[1]; Table 15, OcOH
  Observed emission (Φ): 0.21
  Observed emission λmax: 569 nm
[1]; Table 15, i-PrOH
  Observed emission (Φ): 0.13
  Observed emission λmax: 565 nm
[2]; MeOH
  kph * 10^6 (absolute rate of photobleaching): 0.7 s^−1
[2]; [4]
  kph(rel) (relative rate of photobleaching): 2.1
[3]
  kr(rel) (relative rate constants for product formation during reaction with singlet oxygen produced chemically): 20.3

## CC1(C)c2ccccc2-[n+]2ccc(/C=C/C=C/C3=C(O)c4ccccc4S3(=O)=O)cc21 [AI-SO]
[1]; Butanol (BuOH)
  Absorbance λmax: 650 nm
  Emission λmax: 675 nm
  Extinction coefficient ε: 118000
  Fluorescence quantum yield Φ: 0.92
[1]; C6H6
  Absorption energy Eabs Exp: 1.826 eV
  Emission energy Eem Exp: 1.794 eV
[1]; MeOH
  Absorption energy Eabs Exp: 2.120 eV
  Emission energy Eem Exp: 1.865 eV
[1]; Methanol (MeOH)
  Absorbance λmax: 610 nm
  Emission λmax: 654 nm
  Extinction coefficient ε: 65000
  Fluorescence quantum yield Φ: 0.54
[1]; Table 10, BuOH
  Observed absorption (ε): (118000)
  Observed absorption λmax: 650 nm
[1]; Table 10, C6H6
  Observed absorption (ε): (240000)
  Observed absorption λmax: 679 nm
[1]; Table 10, CH2Cl2
  Observed absorption (ε): (278000)
  Observed absorption λmax: 667 nm
[1]; Table 10, CH3CN
  Observed absorption (ε): (142000)
  Observed absorption λmax: 642 nm
[1]; Table 10, DMF
  Observed absorption (ε): (154000)
  Observed absorption λmax: 651 nm
[1]; Table 10, DMSO
  Observed absorption (ε): (118000)
  Observed absorption λmax: 644 nm
[1]; Table 10, EtOH
  Observed absorption (ε): (83000)
  Observed absorption λmax: 636 nm
[1]; Table 10, MeOH
  Observed absorption (ε): (65000)
  Observed absorption λmax: 610 nm
[1]; Table 10, OcOH
  Observed absorption (ε): (150000)
  Observed absorption λmax: 660 nm
[1]; Table 10, i-PrOH
  Observed absorption (ε): (122000)
  Observed absorption λmax: 648 nm
[1]; Table 12, C6H6
  Absorption Exp wavelength: 679 nm
[1]; Table 12, MeOH
  Absorption Exp wavelength: 585 nm
[1]; Table 15, BuOH
  Observed emission (Φ): 0.92
  Observed emission λmax: 675 nm
[1]; Table 15, C6H6
  Observed emission (Φ): 0.19
  Observed emission λmax: 691 nm
[1]; Table 15, CH2Cl2
  Observed emission (Φ): 0.54
  Observed emission λmax: 681 nm
[1]; Table 15, CH3CN
  Observed emission (Φ): 0.75
  Observed emission λmax: 667 nm
[1]; Table 15, DMF
  Observed emission λmax: 673 nm
[1]; Table 15, DMSO
  Observed emission λmax: 673 nm
[1]; Table 15, EtOH
  Observed emission (Φ): 0.82
  Observed emission λmax: 671 nm
[1]; Table 15, MeOH
  Observed emission (Φ): 0.54
  Observed emission λmax: 665 nm
[1]; Table 15, OcOH
  Observed emission (Φ): 0.88
  Observed emission λmax: 679 nm
[1]; Table 15, i-PrOH
  Observed emission (Φ): 0.96
  Observed emission λmax: 673 nm
[2]; C6H6
  kph * 10^6 (absolute rate of photobleaching): 128 s^−1
[2]; C6H6, with respect to standard I-SO in C6H6
  kph(rel) (relative rate of photobleaching): 115
[2]; MeOH
  kph * 10^6 (absolute rate of photobleaching): 89 s^−1
[2]; [4]
  kph(rel) (relative rate of photobleaching): 261
[3]
  kr(rel) (relative rate constants for product formation during reaction with singlet oxygen produced chemically): 59.2

## CCN1C(=O)\C(=C/C=C/C=C2/N(C)c3ccccc3C2(C)C)C(O)N(CC)C1=S (centres unmarked) [I-TBA, reference compound]
[1]; C6H6
  Absorption energy Eabs Exp: 2.123 eV
  Emission energy Eem Exp: 2.050 eV
[1]; MeOH
  Absorption energy Eabs Exp: 2.127 eV
  Emission energy Eem Exp: 2.056 eV
[1]; Table 10, BuOH
  Observed absorption (ε): (190000)
  Observed absorption λmax: 589 nm
[1]; Table 10, C6H6
  Observed absorption (ε): (127000)
  Observed absorption λmax: 584 nm
[1]; Table 10, DMF
  Observed absorption (ε): (183000)
  Observed absorption λmax: 589 nm
[1]; Table 10, MeOH
  Observed absorption (ε): (173000)
  Observed absorption λmax: 583 nm
[1]; Table 10, OcOH
  Observed absorption (ε): (180000)
  Observed absorption λmax: 590 nm
[1]; Table 12, C6H6
  Absorption Exp wavelength: 585 nm
[1]; Table 12, MeOH
  Absorption Exp wavelength: 583 nm
[1]; Table 15, BuOH
  Observed emission (Φ): 0.61
  Observed emission λmax: 609 nm
[1]; Table 15, C6H6
  Observed emission (Φ): 0.20
  Observed emission λmax: 605 nm
[1]; Table 15, DMF
  Observed emission (Φ): 0.94
  Observed emission λmax: 611 nm
[1]; Table 15, MeOH
  Observed emission (Φ): 0.26
  Observed emission λmax: 603 nm
[1]; Table 15, OcOH
  Observed emission (Φ): 0.99
  Observed emission λmax: 609 nm
[1]; from C6H6 to DMF
  Observed red shift of emission ΔEem: 0.020 eV
  Observed red shift of emission Δλmax: 6 nm
[1]; from C6H6 to OcOH
  Observed red shift of absorption Δλmax: 6 nm
[1]; from OcOH to MeOH
  Observed blue shift of absorption Δλmax: 7 nm
[2]; MeOH
  kph * 10^6 (absolute rate of photobleaching): 0.34 s^−1
[2]; [4]
  kph(rel) (relative rate of photobleaching): 1.00
[3]
  kr(rel) (relative rate constants for product formation during reaction with singlet oxygen produced chemically): 1.00

## C[n+]1ccc(/C=C/C=C/C2=C([O-])c3ccccc3S2(=O)=O)cc1 [P-SO(4)]
[1]; Table 10, BuOH
  Observed absorption (ε): (64000)
  Observed absorption λmax: 593 nm
[1]; Table 10, C6H6
  Observed absorption (ε): (178000)
  Observed absorption λmax: 644 nm
[1]; Table 10, CH2Cl2
  Observed absorption (ε): (187000)
  Observed absorption λmax: 629 nm
[1]; Table 10, CH3CN
  Observed absorption (ε): (93000)
  Observed absorption λmax: 596 nm
[1]; Table 10, DMF
  Observed absorption (ε): (99000)
  Observed absorption λmax: 604 nm
[1]; Table 10, DMSO
  Observed absorption (ε): (77000)
  Observed absorption λmax: 599 nm
[1]; Table 10, EtOH
  Observed absorption (ε): (61000)
  Observed absorption λmax: 557 nm
[1]; Table 10, MeOH
  Observed absorption (ε): (54000)
  Observed absorption λmax: 580 nm
[1]; Table 10, OcOH
  Observed absorption (ε): (80000)
  Observed absorption λmax: 612 nm
[1]; Table 10, i-PrOH
  Observed absorption (ε): (68000)
  Observed absorption λmax: 597 nm
[1]; Table 15, BuOH
  Observed emission (Φ): 0.048
  Observed emission λmax: 640 nm
[1]; Table 15, C6H6
  Observed emission (Φ): 0.002
  Observed emission λmax: 656 nm
[1]; Table 15, CH2Cl2
  Observed emission (Φ): 0.082
  Observed emission λmax: 650 nm
[1]; Table 15, CH3CN
  Observed emission (Φ): 0.067
  Observed emission λmax: 632 nm
[1]; Table 15, DMF
  Observed emission (Φ): 0.10
  Observed emission λmax: 635 nm
[1]; Table 15, DMSO
  Observed emission (Φ): 0.067
  Observed emission λmax: 636 nm
[1]; Table 15, EtOH
  Observed emission (Φ): 0.029
  Observed emission λmax: 634 nm
[1]; Table 15, MeOH
  Observed emission (Φ): 0.018
  Observed emission λmax: 630 nm
[1]; Table 15, OcOH
  Observed emission (Φ): 0.082
  Observed emission λmax: 644 nm
[1]; Table 15, i-PrOH
  Observed emission (Φ): 0.049
  Observed emission λmax: 636 nm
[2]; MeOH
  kph * 10^6 (absolute rate of photobleaching): 28 s^−1
[2]; [4]
  kph(rel) (relative rate of photobleaching): 82
[3]
  kr(rel) (relative rate constants for product formation during reaction with singlet oxygen produced chemically): 60.3
